This note sets out measurements from US10004715B2, “Entacapone for prevention and treatment of atherosclerosis” (National Institute of Biological Sciences, Beijing, priority 2012, dated 2018).

SMILES strings stand for the structures.

One data set deals with Huh-7 cell line. As to the kind of experiment: Cellular triglyceride synthesis inhibition. Format: cell-based. The settings on record: Homo sapiens, dyeing method. The source says:
FIG. 3. The dose-dependent inhibition activity of entacapone on triglyceride synthesis in Huh-7 cell line. The X-axis is the compound concentration. The Y-axis is “read-out” of the triglyceride concentration using dyeing method.

Data set [1] relates to male wistar rats fed with high-fat diet. As to the kind of experiment: In vivo anti-obesity efficacy in rats fed high-fat diet. The note with it: 85.6 mg/day by gavage. More on the design: species or system rat. Here is the method: Total of 23 male wistar rats (6 weeks) were fed with high-fat diet (45% fat, OpenSource Diets D12451), and entacapone (85.6 mg/day) was administered to 12 randomly selected rats by gavage. After 8 weeks, the mean body weight of drug treatment group was about 11% less than that of control group (*p-value<0.05) (FIG. 4).

Data set [2] concerns obese male C57BL/6 mice fed with high-fat diet. As to the kind of experiment: In vivo anti-obesity efficacy in obese mice. More on the design: species or system mouse. The note with it: 300 mg/kg orally blended with diet, after 13 weeks; p<0.05. Here is the method:
Male C57BL/6 mice were fed with high-fat diet (45% fat, OpenSource Diets D12451) for 8 weeks. Then obese mice with body weight 20% larger than that of mice fed with normal diet (20 mice) were selected for experiments. Entacapone (300 mg/kg) was orally administered to 10 randomly selected obese mice by blending with diet. After 13 weeks, the mean body weight gain of drug treatment group was about 11% less than that of control group (*p-value<0.05) (FIG. 9).

Data set [3] has as its system Ldlr−/− mice fed western style diet. As to the kind of experiment: Atherosclerosis model: Ldlr-deficient mice. The settings on record: 300 mg/kg orally blended with diet, after 8 weeks; Oil red O staining; p-value=0.08. It is filed as in vivo, mouse. On the procedure:
Atherosclerosis Model: Ldlr-Deficient Mice. We measured entacapone's anti-atherosclerosis efficacy using Ldlr^−/− mice fed western style diet (20% fat, 0.15% cholesterol), entacapone (300 mg/kg) was orally administered by blending with diet. After 8 weeks, the mean lesion area in aortic sinuses of drug treatment group was 28% less than that of control group (p-value=0.08) (FIG. 8). Therefore, entacapone reduces atherosclerosis symptom, comparing with the control.

For the next data set, the target named is FTO protein (Homo sapiens, UniProt Q9C0B1). As to the kind of experiment: FTO demethylation assay (enzymatic inhibition). Format: biochemical. The note with it: substrate 0.5 μM, enzyme 0.1 μM; ssDNA with N6-mA; HPLC-MS/MS; read-out: IC50 against FTO. Here is the method:
We measured the compound's inhibition activity in the demethylation reaction catalyzed by FTO. The assay was performed in 100 μl of reaction system containing 50 mM HEPES buffer (pH=7.0), 100 μM of a-KG, 100 μM of (NH4)2Fe(SO4)2, 1 mM of L-ascorbic acid, 50 ng/ml of BSA, 0.5 μM of ssDNA with N^6-mA (5′-ATTGTCA(m^6A)CAGCAGA-3′), and 0.1 μM of FTO protein. The reaction system was incubated at 37° C. for 2 h and stopped by heating at 95° C. for […] ssDNA was digested by nuclease P1 and alkaline phosphatase. The concentrations of N^6-mA and A were analyzed by HPLC-MS/MS. When concentration of substrate and enzyme are 0.5 μM and 0.1 μM, respectively, the measured IC50 value of entacapone against FTO is ˜9 μM (FIG. 2).

Sequence of FTO protein (Q9C0B1 whole entry): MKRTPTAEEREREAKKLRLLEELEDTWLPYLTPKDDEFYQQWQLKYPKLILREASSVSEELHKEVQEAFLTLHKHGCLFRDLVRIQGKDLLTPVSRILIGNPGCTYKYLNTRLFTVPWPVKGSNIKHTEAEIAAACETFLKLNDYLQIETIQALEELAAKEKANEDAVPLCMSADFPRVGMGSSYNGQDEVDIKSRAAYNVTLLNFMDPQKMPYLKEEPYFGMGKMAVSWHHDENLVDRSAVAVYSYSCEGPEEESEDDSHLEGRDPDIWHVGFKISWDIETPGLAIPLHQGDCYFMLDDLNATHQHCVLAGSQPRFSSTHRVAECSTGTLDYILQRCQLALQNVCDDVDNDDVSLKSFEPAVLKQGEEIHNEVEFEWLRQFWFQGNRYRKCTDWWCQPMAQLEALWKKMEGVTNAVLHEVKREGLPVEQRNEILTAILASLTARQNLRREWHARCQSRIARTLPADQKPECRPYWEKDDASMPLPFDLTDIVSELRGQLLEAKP

For the compound `CCN(CC)C(=O)/C(C#N)=C/c1cc(O)c(O)c([N+](=O)[O-])c1` [entacapone, (2E)-2-cyano-3-(3,4-dihydroxy-5-nitrophenyl)-N,N-diethylprop-2-enamide], the IC50 with Huh-7 cell line is roughly 15 µM. For the same compound, the “mean body weight less than that of control group” value in data set [1] (after 8 weeks, high-fat diet, p<0.05) is reported as “about 11%”. Moreover, the “decrease of LDL-c in serum compared to control group” value in data set [1] (after 8 weeks, p<0.005) is given as “about 40%”. For the same compound, in data set [1] (high-fat diet), the “adipose tissue change vs control (H&E staining)” value is given as “reduced size of adipose cells”, the “body-weight-normalized food intake vs control group” value is reported as “no difference” and the “hepatic tissue change vs control (H&E staining)” value is recorded as “reduced level of liver steatosis”. The “Difference in serum LDL-cholesterol (drug treatment vs control group)” value in data set [1] (rat serum, p-value 0.0005) is listed as −41.2%. In data set [1] (rat serum, p-value 0.2311), the “Difference in serum Creatine kinase (drug treatment vs control group)” value was −17.6%. The “Difference in serum Glutamic-pyruvic transaminase (drug treatment vs control group)” value in data set [1] (rat serum, p-value 0.4962) was −5.5%. The “Difference in serum Bilirubin (drug treatment vs control group)” value in data set [1] (rat serum, p-value 0.5814) is listed as −10.1%. The “Difference in serum Cholesterol (drug treatment vs control group)” value in data set [1] (rat serum, p-value 0.6455) is given as −3.3%. For the same compound, the “Difference in serum Triglyceride (drug treatment vs control group)” value in data set [1] (rat serum, p-value 0.8023) is on record as −3.8%. Also, the “Difference in serum Albumin ratio (drug treatment vs control group)” value in data set [1] (rat serum, p-value 0.9473) is −0.063%. Moreover, the “Difference in serum HDL-cholesterol (drug treatment vs control group)” value in data set [1] (rat serum, p-value 0.9972) is −0.026%. The “mean body weight gain less than that of control group” value in data set [2] is “about 11%”. Besides, in data set [3], the “mean lesion area in aortic sinuses less than that of control group” value is recorded as 28%. Besides, the IC50 at FTO protein was roughly 9 µM.
